Like-named read-outs stand apart in the source and are kept apart here.
Biological target: BTK (Homo sapiens, UniProt Q06187)
Assay: biochemical
[1] = read-out: BTK inhibition (%), 0.75 uM BTK, […] probe 3l, 15 min preincubation

Sequence of BTK (Q06187 402-655 limits assumed): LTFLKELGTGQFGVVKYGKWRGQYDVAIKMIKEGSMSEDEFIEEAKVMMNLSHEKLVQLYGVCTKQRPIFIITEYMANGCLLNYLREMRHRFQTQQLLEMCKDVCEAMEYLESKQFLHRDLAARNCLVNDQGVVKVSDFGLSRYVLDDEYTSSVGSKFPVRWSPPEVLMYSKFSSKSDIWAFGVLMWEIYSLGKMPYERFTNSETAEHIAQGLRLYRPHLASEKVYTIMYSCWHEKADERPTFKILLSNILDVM

Row | SMILES | inhibition at 10 µM [1] | inhibition at 10 µM (read-out: BTK inhibition (%))
1 | Cn1cnc2c(F)c(Nc3ccc(Br)cc3F)c(C(=O)NOCCO)cc21 [PCM-0215228] | 22.8% | –
2 | CO[C@H]1/C=C/O[C@@]2(C)Oc3c(C)c(O)c4c(O)c(c5c(c4c3C2=O)=NC2(CCN(CC(C)C)CC2)N=5)NC(=O)/C(C)=C\C=C\[C@H](C)[C@H](O)[C@@H](C)[C@@H](O)[C@@H](C)[C@H](OC(C)=O)[C@@H]1C [PCM-0095185] | 7% | –
3 | CC(C(=O)Nc1cccc(N=Cc2c(O)ccc3ccccc23)c1)c1ccccc1 (stereo not drawn) [PCM-0215794] | 21.6% | –
4 | COc1ccc(CCc2cc(OC)c(OC)c(OC)c2)cc1O [PCM-0216418] | -24.7% | –
5 | COc1ccc(C(C)=O)c(O)c1 [PCM-0091399] | 6.2% | –
6 | Nc1ccc(-c2ccc3ncc4ccc(=O)n(-c5cccc(C(F)(F)F)c5)c4c3c2)cn1 [PCM-0095430] | 9.7% | –
7 | CN1CC[C@@H](c2c(O)cc(O)c3c(=O)cc(-c4ccccc4Cl)oc23)[C@@H]1CO [PCM-0215197] | -5.5% | –
8 | CC(=O)O[C@H](CC=C(C)C)C1=CC(=O)c2c(O)ccc(O)c2C1=O [PCM-0216503] | 35.7% | –
9 | COc1ccc2c(c1)c(CC(=O)OCC(=O)O)c(C)n2C(=O)c1ccc(Cl)cc1 [PCM-0085879] | -19.3% | –
10 | CC(O)c1cc(C(=O)N[C@@H](C)Cn2ccc(-c3ccc(C#N)c(Cl)c3)n2)n[nH]1 (stereo partly drawn) [PCM-0215540] | -20.8% | –
11 | COc1c(C)cnc(Cn2cnc3c(Cl)nc(N)nc32)c1C [PCM-0095047] | -10.3% | –
12 | O=C(O)CSCC(=O)NC1CCSC1=O (stereo not drawn) [PCM-0090679] | -10.9% | –
13 | O=C(NO)c1ccc(CC(=O)N(CCO)c2ccccc2)cc1 [PCM-0215415] | 10.8% | –
14 | N[C@@H](Cc1cc(I)c(O)c(I)c1)C(=O)O [PCM-0215163] | -31.9% | –
15 | CC(C)CCC[C@@H](C)[C@H]1CC[C@H]2[C@@H]3CC[C@H]4C[C@@H](O)CC[C@]4(C)[C@H]3CC[C@]12C [PCM-0216033] | -9.4% | –
16 | Nc1ccccc1NC(=O)c1ccc(CNc2nccc(-c3cccnc3)n2)cc1 [PCM-0094926] | 2.8% | –
17 | O=CC1OC(=O)c2cc(O)c(O)c(O)c2-c2c(cc(O)c(O)c2O)C(=O)OC1C1OC(=O)c2cc(O)c(O)c(O)c2-c2c(O)c(O)c3oc(=O)c4c(c(O)c(O)c5oc(=O)c2c3c54)-c2c(cc(O)c(O)c2O)C(=O)OCC1O (stereo not drawn) [PCM-0216414] | 27% | –
18 | Nc1nc2cc(-c3ccc4ncc(C(=O)N5CCOCC5)n4c3)ccc2o1 [PCM-0215857] | 21.4% | –
19 | O=c1[nH]c(=O)n([C@H]2C[C@H](O)[C@@H](CO)O2)cc1/C=C/Br [PCM-0215082] | 7.7% | –
20 | Cc1cc(Nc2nc(N[C@@H](C)c3ccc(F)cc3)c(C#N)cc2F)n[nH]1 [PCM-0095250] | 99.3% | –
21 | CCN1C[C@]2(OC(=O)c3ccccc3NC(C)=O)CC[C@H](OC)[C@@]34[C@@H]2C[C@@H]([C@@H]13)[C@@]1(O)C[C@H](OC)[C@H]2C[C@@H]4[C@]1(O)[C@H]2OC [PCM-0094835] | – | 21%
22 | Oc1c(Cl)cc(Cl)c2cccnc12 [PCM-0085913] | -0.8% | –
23 | O=C1O[C@H]([C@H](O)CO)C(O)=C1O [PCM-0215957] | 1.5% | –
24 | O=C(O)c1cc(N=Nc2ccc(S(=O)(=O)Nc3ccccn3)cc2)ccc1O [PCM-0214740] | 48.3% | –
25 | CCCCCCCCCCCCCCCCOP(=O)([O-])OCC[N+](C)(C)C [PCM-0090698] | -72.3% | –
26 | CC1(O)CC(c2nc(-c3ccc4ccc(-c5ccccc5)nc4c3)c3c(N)nccn23)C1 (stereo not drawn) [PCM-0214568] | 33.1% | –

Row | SMILES | inhibition at 10 µM [1] | inhibition at 10 µM (read-out: BTK inhibition (%))
27 | O=C(c1ccccc1)c1ccc2nc(NC(=O)c3csc(C4CCN(c5ncnc6ccsc56)CC4)n3)[nH]c2c1 [PCM-0095775] | 20.1% | –
28 | COc1cc2c(c(OC)c1OC)-c1c(cc3c(c1OC)OCO3)CC(C)C(C)C2 (stereo not drawn) [PCM-0214727] | 11.7% | –
29 | CC(C)CCNC(=O)[C@H](CC(C)C)NC(=O)[C@H]1O[C@@H]1C(=O)O [PCM-0215302] | -16.2% | –
30 | C[C@H]1CNCCCN1S(=O)(=O)c1cccc2cncc(F)c12 [PCM-0215585] | -14.5% | –
31 | OC[C@H]1OC(O)[C@H](O)[C@@H](O)[C@H]1O (stereo partly drawn) [PCM-0215038] | -23.3% | –
32 | COc1ccc2cc(-c3nc(-c4ccc([S+](C)[O-])cc4)[nH]c3-c3ccncc3)ccc2c1 (stereo not drawn) [PCM-0095143] | 33.8% | –
33 | O=C1Nc2ccc(I)cc2/C1=C/c1cc(Br)c(O)c(Br)c1 [PCM-0095540] | 52.4% | –
34 | Cc1ccc(Sc2cncc3sc(C(N)=O)cc23)cc1 [PCM-0095339] | -3.9% | –
35 | CN1CCN2c3ncccc3Cc3ccccc3C2C1 (stereo not drawn) [PCM-0086153] | 12.5% | –
36 | O=c1ccc2ccc3occc3c2o1 [PCM-0214995] | – | -19.3%
37 | C[N+](C)(C)CCOP(=O)([O-])OC[C@H](O)CO [PCM-0216043] | 1.7% | –
38 | C=C1[C@H](OC(=O)/C=C(\C)CC)C[C@@H](C(C)C)[C@@H]2[C@@H]([C@@H](C)OC(C)=O)C(=O)C[C@@H]12 [PCM-0216448] | -9.3% | –
39 | CN(C)CCc1c[nH]c2ccc(CS(=O)(=O)N3CCCC3)cc12 [PCM-0090415] | -0.8% | –
40 | NC(=O)c1cccc(-c2cccc(OC(=O)NC3CCCCC3)c2)c1 [PCM-0095495] | -6.2% | –
41 | CC(C)(Sc1cc(C(C)(C)C)c(O)c(C(C)(C)C)c1)Sc1cc(C(C)(C)C)c(O)c(C(C)(C)C)c1 [PCM-0086112] | 0.8% | –
42 | CCCCCCCN(CC)CCCC(O)c1ccc(NS(C)(=O)=O)cc1 (stereo not drawn) [PCM-0086483] | -17.1% | –
43 | OCCOCCN1CCN(Cc2cccc(Oc3ccccc3)c2)CC1 [PCM-0215707] | 13.1% | –
44 | O=Cc1ccc(O[C@@H]2O[C@H](CO)[C@@H](O)[C@@H](O)[C@H]2O)cc1 [PCM-0215018] | 7% | –
45 | NC(=O)c1cccc(-c2cc(Nc3ccc(OC(F)(F)F)cc3)ncn2)c1 [PCM-0095363] | -37.9% | –
46 | CC1=CC(=O)c2ccccc2C1=O [PCM-0009823] | -3.1% | –
47 | Cc1cc(N2C[C@@H](C)N[C@@H](C)C2)ncc1-c1ccc(-c2nc3c(ccn3C)c(=O)[nH]2)cc1 [PCM-0215615] | 7.7% | –
48 | CC(C)NCC(O)COc1cccc2ccccc12 (stereo not drawn) [PCM-0064763] | -12.5% | –
49 | C[C@H]1O[C@@H](O[C@H]2CC[C@@]3(C)[C@@H](CC[C@]4(C)[C@@H]3C=CC3=C5CC(C)(C)CC[C@]5(CO)[C@H](O)C[C@]34C)[C@]2(C)CO)[C@H](O)[C@@H](O[C@@H]2O[C@H](CO)[C@@H](O)[C@H](O)[C@H]2O)[C@H]1O [PCM-0216536] | 5.4% | –
50 | CC[C@@H]1/C=C(\C)C[C@H](C)C[C@H](OC)[C@H]2O[C@@](O)(C(=O)C(=O)N3CCCC[C@H]3C(=O)O[C@H](/C(C)=C/[C@@H]3CC[C@@H](O)[C@H](OC)C3)[C@H](C)[C@@H](O)CC1=O)[C@H](C)C[C@@H]2OC [PCM-0215308] | 6.9% | –
51 | CC[C@H]1OC(=O)[C@@](C)(F)C(=O)[C@H](C)[C@@H](O[C@@H]2O[C@H](C)C[C@H](N(C)C)[C@H]2O)[C@](C)(OC)C[C@@H](C)C(=O)[C@H](C)[C@H]2N(CCCCn3cc(-c4cccc(N)c4)nn3)C(=O)O[C@]12C [PCM-0216086] | -22.1% | –
52 | OCCn1cc(-c2cnc3nnn(Cc4ccc5ncccc5c4)c3n2)cn1 [PCM-0095071] | 0% | –

Row | SMILES | inhibition at 10 µM [1] | inhibition at 10 µM (read-out: BTK inhibition (%))
53 | Nc1ncnc2c1ncn2C(C=O)OC(C=O)CO (stereo not drawn) [PCM-0215903] | 0.8% | –
54 | CN(CCNCc1cn(Cc2ccc(Cl)cc2)nn1)CCNc1ccnc2cc(Cl)ccc12 [PCM-0215895] | -10.8% | –
55 | O=c1cc(-c2ccc(O)cc2)oc2cc(O)cc(O)c12 [PCM-0064643] | 63.8% | –
56 | COc1cc2c(c(OC)c1OC)-c1c(cc3c(c1OC)OCO3)C[C@H](C)[C@](C)(O)[C@H]2OC(=O)c1ccccc1 [PCM-0216060] | 3.9% | –
57 | Nc1ncnc2n[nH]c(Nc3ccc(F)cc3)c12 [PCM-0095728] | 37.9% | –
58 | CC[C@H](c1ccc(O)cc1)[C@@H](CC)c1ccc(O)cc1 [PCM-0095223] | -11.7% | –
59 | O=C(Nc1cc(Cl)cc(Cl)c1O)c1c(O)c(Cl)cc(Cl)c1Cl [PCM-0215152] | 18.5% | –
60 | CC(C)(C)c1[nH]cnc1/C=c1\[nH]c(=O)/c(=C/c2ccccc2)[nH]c1=O [PCM-0095681] | -2.1% | –
61 | O=C1C(Cl)=C(N2CCOCC2)C(=O)N1c1ccc(Cl)c(Cl)c1 [PCM-0215236] | -0.8% | –
62 | Cc1ncc(-c2ccnc(Nc3ccc(S(C)(=O)=O)cc3)n2)n1C(C)C [PCM-0095478] | 48.3% | –
63 | O=Cc1ccc(O)c(O)c1 [PCM-0215162] | 5.4% | –
64 | CC(=O)Nc1nc2c(Oc3cc(-c4ccc(C(F)(F)F)cc4)ncn3)cccc2s1 [PCM-0095587] | 10.8% | –
65 | CNCC(=O)O [PCM-0215710] | -11.1% | –
66 | CCCCN1CCCCC1C(=O)Nc1c(C)cccc1C (stereo not drawn) [PCM-0085904] | -9.3% | –
67 | CCc1c(C(=O)C(N)=O)c2c(OCC(=O)O)cccc2n1Cc1ccccc1 [PCM-0094894] | -16.3% | –
68 | c1ccc(-c2[nH]ncc2-c2ccnc3ccccc23)nc1 [PCM-0095402] | 14.5% | –
69 | CCOC(=O)C1=C[C@]2(CC)CCCN3CCc4c(n1c1ccccc41)[C@@H]32 [PCM-0064941] | -14.5% | –
70 | CCCCCCCCCCCCCCCCCCCCCC(=O)O [PCM-0216151] | 23.2% | –
71 | Nc1nc(NCCc2ccc(O)cc2)nc2nc(-c3ccco3)nn12 [PCM-0215654] | -4.6% | –
72 | CC(C)Cn1cnc2c(N)nc3ccccc3c21 [PCM-0086321] | -2.6% | –
73 | COc1ccc2[nH]c(=O)oc2c1 [PCM-0216501] | -4.6% | –
74 | O=C(NC[C@H]1CN(c2ccc(N3CCOCC3=O)cc2)C(=O)O1)c1ccc(Cl)s1 [PCM-0095448] | 4.7% | –
75 | Oc1ccc2ccccc2c1N=Nc1ccc(N=Nc2ccccc2)cc1 [PCM-0215976] | -3.1% | –
76 | O=C(O)C(=O)O [PCM-0216287] | -10% | –
77 | Cn1cc(-c2ccc3ncc(Cc4ccc5ncccc5c4)n3n2)cn1 [PCM-0095521] | -16.6% | –
78 | OC[C@@H](O)[C@@H](O[C@@H]1O[C@H](CO)[C@H](O)[C@H](O)[C@H]1O)[C@H](O)[C@@H](O)CO [PCM-0090607] | 17.8% | –
